Results from the supplement of paper PMC10307832.

Key:
Assay in all cases: relative viability (nuclei count vs DMSO), 5 days (fraction); higher = more cells survive
Selisistat + Luminespib = compound: C1CC(C2=C(C1)C3=C(N2)C=CC(=C3)Cl)C(=O)N [Selisistat] + CCNC(=O)c1noc(-c2cc(C(C)C)c(O)cc2O)c1-c1ccc(CN2CCOCC2)cc1 [Luminespib] (partner 0.01 µM)
Outline: (§1)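 One day after seeding in 1536-well plates, lung cancer cell lines were dosed by pin tool. Dosing was either single-drug or a fixed anchor-drug dose plus five library-drug doses (not always all listed) in √10 steps. After 5 days, nuclei were stained in one fix-and-stain step and counted on 4× images, and relative viability is the nuclei count of treated wells over that of vehicle wells, given as the median of duplicate plates.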

Selisistat + Phenformin = compound: C1CC(C2=C(C1)C3=C(N2)C=CC(=C3)Cl)C(=O)N [Selisistat] + N=C(N)NC(=N)NCCc1ccccc1 [Phenformin] (partner 250 µM)
Outline: as §1

Serdemetan + Luminespib = compound: c1ccc2c(CCNc3ccc(Nc4ccncc4)cc3)c[nH]c2c1 [Serdemetan] + CCNC(=O)c1noc(-c2cc(C(C)C)c(O)cc2O)c1-c1ccc(CN2CCOCC2)cc1 [Luminespib] (partner 0.01 µM)
Outline: as §1

Serdemetan + Phenformin = compound: c1ccc2c(CCNc3ccc(Nc4ccncc4)cc3)c[nH]c2c1 [Serdemetan] + N=C(N)NC(=N)NCCc1ccccc1 [Phenformin] (partner 250 µM)
Outline: as §1

With UMC-11 the relative viability (Selisistat + Luminespib; first compound 0.4 µM) was 1.03, the relative viability (Selisistat + Luminespib; first compound 1.265 µM) was 0.931 and the relative viability (Selisistat + Luminespib; first compound 4 µM) was 0.896. The relative viability (Selisistat + Luminespib; first compound 12.65 µM) was 1.09, the relative viability (Selisistat + Luminespib; first compound 40 µM) was 1 and the relative viability (Selisistat + Phenformin; first compound 0.4 µM) was 0.337. The relative viability (Selisistat + Phenformin; first compound 1.265 µM) was 0.303, the relative viability (Selisistat + Phenformin; first compound 4 µM) was 0.302 and the relative viability (Selisistat + Phenformin; first compound 12.65 µM) was 0.288. For the same cell line, the relative viability (Selisistat + Phenformin; first compound 40 µM) was 0.303, the relative viability (Serdemetan + Luminespib; first compound 0.04 µM) was 0.938 and the relative viability (Serdemetan + Luminespib; first compound 0.1265 µM) was 1.01. The relative viability (Serdemetan + Luminespib; first compound 4 µM) was 0.852, the relative viability (Serdemetan + Phenformin; first compound 0.04 µM) was 0.312 and the relative viability (Serdemetan + Phenformin; first compound 0.1265 µM) was 0.31. The relative viability (Serdemetan + Phenformin; first compound 4 µM) was 0.321.
